The structures appear in SMILES notation. In brackets after ≈: the same amount, converted by molar mass. Bounds are passed on as bounds.

The results in this text go back to ChEMBL document CHEMBL1156639, “Antiprotozoal activities of heterocyclic-substituted xanthones from the marine-derived fungus Chaetomium sp” (J Nat Prod, 2008).

One experiment relates to Trypanosoma cruzi. Put plainly: Antiprotozoal activity against Trypanosoma cruzi Tulahuen C4 in rat L6 cells. It counts as functional, organism-based.
For a further experiment, the system named is Leishmania donovani. Put plainly: Antiprotozoal activity against Leishmania donovani MHOM-ET-67/L82 in mouse peritoneal macrophages. It counts as functional, organism-based.
Experiment [1] relates to Trypanosoma brucei rhodesiense. Description: Antiprotozoal activity against Trypanosoma brucei rhodesiense STIB900. Type of experiment: functional, organism-based.
The test system of a further experiment is L6. Put plainly: Cytotoxicity against rat L6 cells. It counts as cell-based.
For another experiment, the system named is Plasmodium falciparum. Description: Antimalarial activity against Plasmodium falciparum K1 in human erythrocytes by [3H]hypoxanthine uptake. Type of experiment: functional, organism-based.

The term IC50 denotes the midpoint of a concentration-inhibition curve. Higher therefore signals a need for much substance. `O=C(Cn1ccnc1[N+](=O)[O-])NCc1ccccc1` [BENZNIDAZOLE]: in the experiment with Trypanosoma cruzi, the IC50 is 0.317 µg/mL (≈ 1.22 µM).
As to `COc1cccc2oc3cc4c(c(O)c3c(=O)c12)[C@@H]1C[C@@H](O)C[C@](C)(O4)O1` [CHAETOXANTHONE A], the IC50 in the experiment with Leishmania donovani is 5.3 µg/mL (≈ 14.3 µM); with Trypanosoma cruzi, greater than 10 µg/mL; in experiment [1], 4.7 µg/mL (≈ 12.7 µM); in the experiment with L6, 59.1 µg/mL (≈ 160 µM); in the experiment on Plasmodium falciparum it was 3.5 µg/mL (≈ 9.45 µM).
Taken in the same sequence, the figures for `COc1cccc2oc3cc4c(c(O)c3c(=O)c12)C1CCCC(C)(O4)O1` (stereo unspecified) [CHAETOXANTHONE B] were 3.4 µg/mL (≈ 9.59 µM), 7.1 µg/mL (≈ 20 µM), 9.3 µg/mL (≈ 26.2 µM), greater than 90 µg/mL and 0.5 µg/mL (≈ 1.41 µM).
In the case of `COc1cccc2oc3c(Cl)c(O)c([C@H]4CCC[C@@H](C)O4)c(O)c3c(=O)c12` [CHAETOXANTHONE C], the IC50 was 3.1 µg/mL (≈ 7.93 µM) in the experiment with Leishmania donovani; 1.5 µg/mL (≈ 3.84 µM) in the experiment with Trypanosoma cruzi; 42.6 µg/mL (≈ 109 µM) in experiment [1]; 46.7 µg/mL (≈ 119 µM) in the experiment on L6; 4 µg/mL (≈ 10.2 µM) in the experiment on Plasmodium falciparum.
